What was measured:
[1] = Blood level screening after oral dose; type: in vivo, Sprague-Dawley rats; conditions: rat, oral gavage 10 mg/kg; for concentration at 3 h: read-out: Plasma Levels (μM) 3 hr; for concentration at 1 h: read-out: Plasma Levels (μM) 1 hr
Method: The inhibitors were dissolved or suspended in polyethylene glycol (PEG), PEG-400 or PEG:H2O:EtOH at a concentration of 10 mg/ml. Unfasted male Sprague-Dawley rats were given an oral dose of this solution by gavage. Rats received 10 mg inhibitor/kg body weight in a volume of 1 ml/kg. After 1,3 or 6 hr., the rats were killed with an overdose of urethane (2.5 g/kg; i.p.) and the blood collected in a heparinized tube via cardiac puncture. Red blood cells were separated from the plasma by centrifugation.
Depending on the inhibitor, one of four organics (ethyl acetate, toluene, isopropyl ether or methyl t-butyl ether) was used to extract the compound from the plasma. Inhibitor concentrations were measured by HPLC or LC/MS analysis.

[2] = target: T1, human neutrophil elastase (HNE) (Homo sapiens, UniProt P08246); assay: HNE Ki of CE compounds, tested as described in WO 96/16080; type: biochemical; conditions: read-out: HNE Ki
T1 sequence (P08246 30-267): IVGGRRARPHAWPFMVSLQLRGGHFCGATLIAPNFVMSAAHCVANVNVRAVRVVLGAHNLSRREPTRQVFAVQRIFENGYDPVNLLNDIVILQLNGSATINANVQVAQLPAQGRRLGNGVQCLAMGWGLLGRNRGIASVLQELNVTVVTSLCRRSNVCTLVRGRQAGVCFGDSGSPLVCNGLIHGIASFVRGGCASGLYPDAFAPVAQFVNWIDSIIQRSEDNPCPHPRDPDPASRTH

Row | Compound | concentration at 3 h ([1]; male, Sprague-Dawley, plasma) | Ki [2] | concentration at 1 h ([1]; male, Sprague-Dawley, plasma) | Plasma Levels (μM) 3 hr [1] | Plasma Levels (μM) 1 hr [1] | Plasma Levels (μM) 6 hr ([1]; 6 hr) | concentration at 6 h ([1]; male, Sprague-Dawley, plasma, 6 hr, read-out: Plasma Levels (μM) 6 hr)
1 | CC(=O)N1CC(=O)N(CC(=O)N[C@H](C(=O)c2nnc(Cc3cccc(C)c3)o2)C(C)C)C(=Cc2ccc(N(C)C)cc2)C1=O [CE2111, 1-Acetyl-3-(4-dimethylaminobenzylidene) piperazine-2,5-dione-N-[1-(2-[5-(3-methylbenzyl)-1,3,4-oxadiazolyl]carbonyl)-2-(S)-methylpropyl]acetamide] | 0.69 µM | 20 nM | – | – | – | – | –
2 | Cc1cccc(Cc2nnc(C(=O)[C@@H](NC(=O)Cn3c(=O)c(N)cc4ccccc43)C(C)C)o2)c1 [CE2113, 3-(Amino-quinoline-2-one)-N[1-(2-[5-(3-methylbenzyl)-1,3,4-oxadiazolyl]carbonyl)-2-(S)-methylpropyl]acetamide] | 0.909 µM | 39 nM | 1.83 µM | – | – | – | –
3 | CC(C)[C@H](NC(=O)[C@@H]1Cc2ccccc2N1C(=O)[C@@H](NC(=O)OCc1ccccc1)C(C)C)C(=O)c1noc(Cc2cccc(C(F)(F)F)c2)n1 [CE2125, (Benzyloxycarbonyl)-L-valyl-2-L-(2,3-dihydro-1H-indole)-N-[1-(3-[5-(3-trifluoromethylbenzyl)-1,2,4-oxadiazolyl]carbonyl)-2-(S)-methylpropyl]amide] | 0.011 µM | 0.4 nM | – | – | – | – | –
4 | CC(C)[C@H](NC(=O)CN1C(=O)N[C@H](Cc2ccccc2)C1=O)C(=O)c1noc(Cc2cccc(C(F)(F)F)c2)n1 [CE2141, 5-(R)-Benzyl-2,4-imidazolidinedione-N-[1-(3-[5-(3-trifluoromethylbenzyl)-1,2,4-oxadiazolyl]carbonyl)-2-(S)-methylpropyl]acetamide] | – | 64 nM | – | 0.005 µM | – | – | –
5 | Cc1cccc(Cc2nnc(C(=O)[C@@H](NC(=O)CN3C(=O)CN(CCN4CCOCC4)C(=O)[C@H]3Cc3ccccc3)C(C)C)o2)c1 [CE2162, 4-[1-(2-N-Morpholino)ethyl-3-(R)-benzylpiperazine-2,5-dione]-N-[1-(2-[5-(3-methylbenzyl)-1,3,4-oxadiazolyl]carbonyl)-2-(S)-methylpropyl]acetamide] | 0.025 µM | 10.6 nM | – | – | – | – | –
6 | Cc1cccc(Cc2nnc(C(=O)[C@@H](NC(=O)CN(Cc3ccccc3)C(=O)c3ccc[nH]3)C(C)C)o2)c1 [CE2164, (Pyrrole-2-carbonyl)-N-(benzyl)glycyl-N-[1-(2-[5-(3-methylbenzyl)-1,3,4-oxadiazolyl]carbonyl)-2-(S)-methylpropyl]amide] | 0.034 µM | 17 nM | – | – | – | – | –
7 | CC(=O)N1c2ccccc2C[C@H]1C(=O)N[C@H](C(=O)c1nnc(Cc2cccc(C)c2)o1)C(C)C [CE2165, N-Acetyl-2-(L)-(2,3-dihydro-1H-indole)-N-[1-(2-[5-(3-methylbenzyl) 1,3,4-oxadiazolyl]carbonyl)-2-(S)-methylpropyl]amide] | 0.067 µM | 2.6 nM | – | – | – | – | –
8 | CC(C)[C@H](NC(=O)[C@@H]1CCCN1C(=O)[C@@H](NS(C)(=O)=O)C(C)C)C(=O)c1noc(Cc2cccc(C(F)(F)F)c2)n1 [CE2172, Methylsulfonyl-L-valyl-N-[1-(3-[5-(3-trifluoromethylbenzyl)-1,2,4-oxadiazolyl]carbonyl)-2-(S)-methylpropyl]-L-prolinamide] | 0.021 µM | 2.2 nM | – | – | – | – | –
9 | CC(C)[C@H](NC(=O)CN1C(=O)NC(=Cc2cccnc2)C1=O)C(=O)c1noc(Cc2cccc(C(F)(F)F)c2)n1 [CE2203, [4-(R)-(3-pyridylmethylene)]-2,5-imidazolidinedione-N-[1-(3-[5-(3-trifluoromethylbenzyl)-1,2,4-oxadiazolyl]carbonyl)-2-(S)-methylpropyl]acetamide] | – | 79 nM | – | 0.004 µM | – | – | –
10 | Cc1cccc(Cc2nnc(C(=O)[C@@H](NC(=O)CN3C[C@@H](c4ccccc4)N(C(=O)OCc4ccccc4)CC3=O)C(C)C)o2)c1 [CE2204, 1-Benzyloxycarbonyl-(2-(R)-phenylpiperazin-5-one)-N-[-(2-[5-(3-methylbenzyl)-1,3,4-oxadiazolyl]carbonyl)-2-(S)-methylpropyl]acetamide] | 0.48 µM | 7.4 nM | – | – | – | – | –
11 | CCc1cccc(Cc2nnc(C(=O)[C@@H](NC(=O)CN3C(=O)NC(=Cc4cccnc4)C3=O)C(C)C)o2)c1 [CE2205, [4-(R)-(3-pyridylmethylene)]-2,5-imidazolidinedione-N-[1-(2-[5-(3-ethylbenzyl)-1,3,4-oxadiazolyl]carbonyl)-2-(S)-methylpropyl]acetamide] | – | 37 nM | – | 0.475 µM | – | – | –
12 | CC(C)OC(=O)N[C@H](C(=O)N1CCC[C@H]1C(=O)N[C@H](C(=O)c1noc(Cc2cccc(C(F)(F)F)c2)n1)C(C)C)C(C)C [CE2207, Isopropytoxycarbonyl-L-valyl-N-[1-(3-[5-(3-trifluoromethylbenzyl)-1,2,4-oxadiazolyl]carbonyl)-2-(S)-methylpropyl]-L-prolinamide] | 0 µM | 1.2 nM | – | – | – | – | –
13 | CC(C)[C@H](NC(=O)CN1C(=O)NC(c2ccncc2)(N2C(=O)CCC2=O)C1=O)C(=O)c1noc(Cc2cccc(C(F)(F)F)c2)n1 (stereo partly drawn) [CE2209, [4-(R,S)-(4-pyridyl)-4-(R,S)-N-succinimidyl]-2,5-imidazolidinedione-N-[1-(3-[5-(3-trifluoromethylbenzyl)-1,2,4-oxadiazolyl]carbonyl)-2-(S)-methylpropyl]acetamide] | – | 36.4 nM | – | 0 µM | – | – | –
14 | COC(=O)N[C@H](C(=O)N1CCC[C@H]1C(=O)N[C@H](C(=O)c1nnc(Cc2cccc(C)c2)o1)C(C)C)C(C)C [CE2213, Methyloxycarbonyl-L-valyl-N-[1-(2-[5-(3-methylbenzyl)-1,3,4-oxadiazolyl]carbonyl)-2-(S)-methylpropyl]-L-prolinamide] | 0.19 µM | 0.14 nM | – | – | – | – | –
15 | COC(=O)N[C@H](C(=O)N1CCC[C@H]1C(=O)N[C@H](C(=O)c1noc(Cc2cccc(C(F)(F)F)c2)n1)C(C)C)C(C)C [CE2214, Methyloxycarbonyl-L-valyl-N-[1-(3-[5-(3 trifluoromethylbenzyl)-1,2,4-oxadiazolyl]carbonyl)-2-(S)-methylpropyl]-L-prolinamide] | 0 µM | 0.92 nM | – | – | – | – | –
16 | Cc1cccc(Cc2nnc(C(=O)[C@@H](NC(=O)Cn3c(=O)ncc4ccccc43)C(C)C)o2)c1 [CE2215, 1,4-Quinazolin-2-one-N-[1-(2-[5-(3-methylbenzyl)-1,3,4-oxadiazolyl]carbonyl)-2-(S)-methylpropyl]acetamide] | – | 163 nM | – | 0.83 µM | 1.16 µM | 0.63 µM | –
17 | Cc1cccc(Cc2nnc(C(=O)[C@@H](NC(=O)CN3C(=O)N[C@@H](CC(C)C)C3=O)C(C)C)o2)c1 [CE2227, 4-(S)-(2-Isobutyl)-2,5-imidazolidinedione-N-[1-(2-[5-(3-methylbenzyl)-1,3,4-oxadiazolyl]carbonyl)-2-(S)-methylpropyl]acetamide] | – | 40 nM | – | 0.74 µM | 1.276 µM | 0.962 µM | –
18 | Cc1cccc(Cc2nnc(C(=O)[C@@H](NC(=O)CN3C(=O)NC4(CCCC4)C3=O)C(C)C)o2)c1 [CE2231, 4-Spirocyclopentane-2,5-imidazolidinedione-N-[1-(2-[5-(3-methylbenzyl)-1,3,4-oxadiazolyl]carbonyl)-2-(S)-methylpropyl]acetamide] | – | 16 nM | – | 0.787 µM | 1.226 µM | 0.531 µM | –
19 | Cc1cccc(Cc2nnc(C(=O)[C@@H](NC(=O)CN(C(=O)[C@@H](NC(=O)OCc3ccccc3)C(C)C)c3ccccc3)C(C)C)o2)c1 [CE2232, Benzyloxycarbonyl-L-valyl-N-(phenyl)glycyl-N-[1-(2-[5-(3-methylbenzyl)-1,3,4-oxadiazolyl]carbonyl)-2-(S)-methylpropyl]amide] | 0.44 µM | 0.15 nM | 0.44 µM | – | – | – | 0.26 µM
20 | BTD-[1-(2-[5-(3-methylbenzyl)-1,3,4-oxadiazolyl]carbonyl)-2-(S)-methylpropyl]amide [CE2126] | – | 5 nM | – | 0.161 µM | – | – | –

— patent US6656911B2, “Serine protease inhibitors” (Cortech, Inc., priority 1994, dated 2003)
